# Where “and” joins values, the source holds several entries; their conditions need not be identical. Equal entries are not always repeated.
# Assays:
# [1] = tested on: cytoadhesive properties of infected erythrocytes; conditions: adjunct treatment candidate, phase II clinical trial; cited from earlier work
# [2] = tested on: P. falciparum; test: Rosetting assay (percentage of IRBC that form rosettes), P. falciparum; type: cell-based, Plasmodium falciparum; conditions: for effect on rosetting rates of TSP-1 and VWF without IGFBP7: Albumax-supplemented medium, TSP-1 and VWF present together
# Method: (§1) Rosetting assay was conducted when 70% of the parasite population reached late stages (late trophozoites and schizonts) unless stated otherwise. The parasite culture suspension was stained subvitally with Giemsa (5% stain working concentration) for 20 minutes. Subsequently, 7.6 μl stained suspension was pipetted onto a clean glass slide, immediately covered with a 22×32 mm glass cover slip. The wet mount was examined with light microscope using 1000× magnification. Rosetting rate (percentage of rosetting IRBCs) was defined as the percentage of IRBC (over 200 recruited IRBC) that form rosettes. Experiments were conducted in blinded manner.
# (§2) Following data review, coupled with critical information (i.e. the protein's subcellular location and cellular functions) from UNIPROT, candidates were shortlisted for further validation. The parasite culture suspensions were incubated with CSMT and antibodies against the shortlisted proteins (see Table 6, items 35, 37, 39-41) and tested in rosetting assay at a final concentration of 25 μg/ml.
# (§3) The parasite culture suspension was divided into three groups, one served as control, the second group was added with recombinant human IGFBP7 (final concentration 100 ng/ml), and the third group was mixed with CSMT (CSMT:parasite culture=1:3). After one hour of incubation under in vitro cultivation conditions, rosetting assay was conducted. Separately, a portion of the IGFBP7 suspension was heat-denatured at 95° C. for one hour, prior to use in rosetting assay.
# (§4) Parasite cultures were incubated with IGFBP7 (working concentrations 0-25,000 ng/ml) prior to rosetting assay. Time course experiments were performed with laboratory-adapted P. falciparum lines (3D7, MKK183, FVT402, FVT201, WPP3065) incubated with IGFBP7 (100 ng/ml). Rosetting assay was conducted after five minutes, using 7 μl of the suspension. The remaining suspension was kept back into the incubator. Rosetting assay was repeated at five minute-intervals until one hour-post-IGFBP7 exposure. Reversibility of IGFBP7-mediated rosette-stimulation was also tested. Parasite lines (3D7, MKK183, FVT402, FVT201, WPP3065) were incubated with IGFBP7 (100 ng/ml) and rosetting assay was conducted with 7 μl of the suspension. The remaining suspension was centrifuged at 1500 g for five minutes. Supernatant was removed, and the pellet was washed thrice with culture medium, followed by re-suspension with culture medium. Five minutes later, 7 μl of the suspension was taken for rosetting assay, subsequently repeated at five minute-intervals up to one-hour post-IGFBP7 removal.
# (§5) Magnetic activated cell sorter (MACS)-sorted late stage-IRBC (purity 95%) were trypsinized at different working concentrations. The first group was mixed with enzyme trypsin (final trypsin concentration of 10 μg/ml), and the second was mixed with enzyme trypsin (final trypsin concentration of 1 mg/ml). The third served as untreated control. The cells were incubated at 37° C. for 30 minutes. After that, the cells were washed with serum-enriched medium for three times. Each group was incubated with or without IGFBP7 (100 ng/ml) prior to rosetting assay. P. falciparum line CS2 deficient of SBP1 [(SBP1-KO-CS2), which lacks P. falciparum erythrocyte membrane protein 1 (PFEMP1) on its IRBC surface] and its wild type (CS2-WT) counterpart were cultured as described. Their rosetting rates post-incubation with IGFBP7 at different concentrations were determined. P. falciparum clones NF54 VAR2CSA_WT and NF54_T934D (cannot express PfEMP1 variant VAR2CSA on IRBC surface^32) were cultivated. Experiments were conducted when parasite population reached late stages. For each parasite line, two conditions were applied; one was incubated with IGFBP7 (100 ng/ml) whereas the other one acted as IGFBP7-free control. Rosetting assay was conducted afterwards. Five replicates were conducted for each experiment setting. […]
# [3] = tested on: P. vivax; test: Rosetting assay (percentage of IRBC that form rosettes), P. vivax; type: cell-based, Plasmodium vivax
# Method: as §1, §2, §3, §4, §5
# [4] = tested on: peripheral monocytes; test: IRBC phagocytosis by CD14+ peripheral monocytes; type: cell-based, human; conditions: IGFBP7 100 ng/ml, Pf line NHP1106, biological replicates
# [5] = tested on: THP-1; test: IRBC phagocytosis by THP-1; type: cell-based, human
# [6] = tested on: THP-1; test: Zymosan A phagocytosis by THP-1 (control experiment); type: cell-based, human; conditions: IGFBP7 100 ng/ml one hour, then Zymosan A 10 μg/ml one hour
# Method: THP-1 is cultivated and expanded into three batches. For each batch of culture, 1×10^6 cells were incubated with IGFBP7 (working concentration 100 ng/ml) for one hour at in vitro cultivation conditions. Another set of cells acted as IGFBP7-free control. Subsequently, Zymosan A (working concentration 10 μg/ml) was added to both sets of cells and incubated for another one hour at in vitro cultivation conditions. Supravital staining with Giemsa was done for 15 minutes following this. Using wet mount technique, the percentage of THP-1 cells which has engulfed Zymosan A was determined as phagocytosis rate by recruiting 1,000 THP-1 cells. The experiment was repeated with the other two batches of THP-1 culture. And all the steps were repeated for another two times using THP-1 cultures thawed at different time points. P. falciparum lines (3D7, MKK183, FVT402, FVT201, CS2_WT) were incubated with or without IGFBP7 in serum-enriched medium prior to rosetting assay. Subsequently, THP-1 were added. Using wet mount technique, the IRBC phagocytosis rates were determined following the same formula to determine phagocytosis rate in the Zymosan A experiment. […]
# [7] = tested on: hCMEC/D3; test: IRBC-endothelial cytoadhesion to hCMEC/D3; type: cell-based, Plasmodium falciparum
# Text: Following this we investigated the relationship between IGFBP7, rosetting and IRBC-endothelial cytoadhesion. As expected, IGFBP7 stimulated rosetting of the recruited laboratory-adapted P. falciparum. […] How about the already endothelial-cytoadhered IRBCs? […] Clearly, presence of IGFBP7 interfered with the dynamics between IRBC-endothelial cytoadhesion and IRBC-rosetting.
# Is the IGFBP7-induced reversal of IRBC-endothelial cytoadhesion mediated via the IGFBP7-stimulated rosetting? Or are the two events occurring concomitantly? […] The two events are likely to happen in parallel instead of being a cause-effect relationship.
# [8] = tested on: Plasmodium berghei ANKA line expressing luciferase (PbAluc); test: Experimental cerebral malaria (ECM) in PbAluc infected C57BL/6 mice; type: in vivo
# Method: Here, we set out to determine the effect of IGFBP7 administration on mice. In particular, we set out to determine the dose and protection from ECM death of mouse IGFBP7 administered i.v. on days 5-12 post-infection (dpi) to Plasmodium berghei ANKA line expressing luciferase (PbAluc) infected C57BL/6 mice.
# IGFBP7 was suspended in 1×PBS (concentrations: 0, 50, 100, 200, 1000, and 5000 ng/ml). A separate aliquot of IGFBP7 (5000 ng/ml) was prepared and boiled for one hour, to be used as control.
# For each protein concentration group, I.V. administration of 100 μl per mouse was done.
# Mice were infected with PbAluc. Prior to infection, an aliquot of serum was collected for each mouse using blood collected through orbital bleeding. Sera were also collected on days 3 and 6 post-infection (dpi) for further testing in future.
# I.V. administration was done on daily basis from 5-12 dpi. The n number for each concentration group was 8 except group 5 ng/mouse (n=7) and group 500 ng/mouse (n=5).
# The mice were monitored daily, and their signs and symptoms were observed. Dead mice were removed.
# Survival of mice within the experimental cerebral malaria (ECM) period (6-12 dpi) across the experimental groups was recorded.
# Mice that survived the ECM period were monitored until their death by malaria-induced anemia.
# [9] = Albumax-supplemented medium with IGFBP7 100 ng/ml and TSP-1 10 ng/ml
substance,measurement,setting,value
Curdlan sulfate,effect on pathology of patients,[1],reduce the severe pathology development
"TSP-1: rhTSP-1 (thrombospondin-1), serum co-factor of IGFBP7-mediated rosetting",effect on rosetting rates of TSP-1 and VWF without IGFBP7,[2],could not increase the rosetting rates
same,TSP-1 concentration enough to optimally facilitate IGFBP7-mediated rosette-stimulation,"[2]; serum-free (Albumax-supplemented medium), IGFBP7 100 ng/ml, with VWF",10 ng/mL
"VWF: Recombinant human VWF (rhVWF), serum co-factor of IGFBP7-mediated rosetting",VWF concentration at which optimal increment attained,[2]; [9],0.5 IU/ml
same,VWF concentration sufficient to significantly increase rosetting rates,[2]; [9],0.125 IU/ml
same,effect on rosetting rates of TSP-1 and VWF without IGFBP7,[2],could not increase the rosetting rates
same,effect of VWF by itself on rosetting,"[2]; VWF 1 IU/ml, no IGFBP7, 20% and 2% serum medium",did not stimulate rosetting
insulin-like growth factor binding protein 7 [IGFBP7],effect on rosetting rates with VWF in Albumax medium,"[2]; 0.25% Albumax II medium, IGFBP7 100 ng/ml, VWF 0-2.0 IU/ml, no TSP-1",did not significantly increase rosetting rates
same,IGFBP7-induced rosetting in filtered serum,"[2]; 20% human serum filtered with 0.45 μm filter, IGFBP7 100 ng/ml",abolished
same,rosette-stimulating capacity after heat denaturation,"[2]; 95° C. for one hour, Pf n=5",abolished
same,effect on rosetting rate,[2]; CS2 wild-type parasite,increased
same,effect on rosetting of trypsin-treated IRBC,"[2]; IRBC treated with 10 μg/ml or 1 mg/ml trypsin, IGFBP7 100 ng/ml, Pf n=5",did not significantly alter rosetting
same,rosetting rates,"[2]; NF54 T934D (no VAR2CSA on IRBC surface), IGFBP7 100 ng/ml, one hour, biological replicates",0.5% (2×) and 1.5% (2×) and 1.0%
same,rosetting rates,"[2]; NF54 VAR2CSA_WT, IGFBP7 100 ng/ml, one hour, biological replicates",5.0% and 7.0% and 4.5% and 4.0% and 6.5%
same,rosetting rates,"[2]; Pf co-incubated with THP-1, IGFBP7 100 ng/ml, biological replicates",11.0% and 13.0% and 16.0% and 9.0% and 10.0%
same,rosetting rates,"[2]; Pf co-incubated with monocytes, IGFBP7 100 ng/ml, biological replicates",14.0% and 18.0% and 15.0% and 17.0% and 10.0%
same,concentration at which significant rosette-stimulation noted,"[2]; Pf n=7, one hour incubation, 0-25,000 ng/ml tested",50 ng/mL
same,concentration from which significant rosette-stimulation was noted,[2]; PfCS2-WT,100 ng/mL
same,effect on rosetting rate,[2]; SBP1-KO-CS2 (no PfEMP1 on IRBC surface),no effect
same,effect on rosetting with URBC of different ABO blood groups,"[2]; URBC groups A, B, O, AB, rhIGFBP7 100 ng/ml, Pf n=7",significantly increase rosetting rates regardless of the blood groups
same,rosetting with heparinase-treated URBC,"[2]; URBC treated with heparinase I or III 25 μg/ml, purified Pf IRBC",did not induce rosetting
same,rosetting rates of IRBCs detached from hCMEC/D3,"[2]; after co-incubation with URBCs and IGFBP7, all parasite lines recruited",5-25%
same,rosette formation prior to THP-1 exposure,"[2]; five different P. falciparum lines, IGFBP7-incubated",formed more rosettes
same,minimum time to significantly stimulate rosetting,"[2]; lab-adapted Pf n=5, IGFBP7 100 ng/ml",≥ 15 min
same,time after protein removal at which rosetting rates revert to baseline,"[2]; lab-adapted Pf n=5, after IGFBP7 100 ng/ml exposure and washing",15 min
same,rosetting rates,"[2]; late ring stages (hour 16-26) of NHP1106, IGFBP7 100 ng/ml, replicates flask/cycle",8.5% and 7.0% (2×) and 8.0% (2×) and 6.0% (3×) and 5.0%
same,concentration at which rosette stimulation reaches a plateau,"[2]; leukocyte-free parasite culture, P. falciparum isolates",100 ng/mL
same,effect on rosetting rates in 2% serum,"[2]; medium with only 2% serum, IGFBP7 100 ng/ml, no VWF added",could not increase rosetting rates
same,rosette-stimulating capacity after heat denaturation,"[3]; 95° C. for one hour, Pv n=4",abolished
same,effect on rosetting of trypsin-treated IRBC,"[3]; IRBC treated with 10 μg/ml or 1 mg/ml trypsin, IGFBP7 100 ng/ml, Pv n=4",did not significantly alter rosetting
same,concentration at which significant rosette-stimulation noted,"[3]; Pv n=7, one hour incubation, 0-25,000 ng/ml tested",50 ng/mL
same,effect on rosetting with URBC of different ABO blood groups,"[3]; URBC groups A, B, O, AB, rhIGFBP7 100 ng/ml, Pv n=7",significantly increase rosetting rates regardless of the blood groups
same,rosetting with heparinase-treated URBC,"[3]; URBC treated with heparinase I or III 25 μg/ml, purified Pv IRBC",did not induce rosetting
same,concentration at which rosette stimulation reaches a plateau,"[3]; leukocyte-free parasite culture, P. vivax isolates",100 ng/mL
same,phagocytosis rates,[4],6.0% and 10.0% and 9.0% and 11.0% and 4.0%
same,phagocytosis rates,"[5]; THP-1, IGFBP7 100 ng/ml, Pf line NHP1106, biological replicates",10.0% (2×) and 5.0% and 11.0% and 8.0%
same,IRBC phagocytosis compared with non-IGFBP7-exposed counterparts,"[5]; five different P. falciparum lines, IGFBP7-incubated prior to THP-1 exposure",significantly less phagocytosed
same,effect on phagocytosis ability of THP-1,[6],increased
same,cytoadhesion of already hCMEC/D3-cytoadhering IRBCs,[7]; incubation of cytoadhering IRBCs with IGFBP7,reduced IRBC-endothelial cytoadhesion
same,IRBC-endothelial cytoadhesion of IGFBP7-primed packed cells,"[7]; rosette-stimulated cells then co-incubated with hCMEC/D3, vs non-IGFBP7-primed",lower rate of IRBC-endothelial cytoadhesion
same,ECM death compared with control group,"[8]; 10, 20, 100, and 500 ng/mouse i.v. daily 5-12 dpi, vs denatured IGFBP7",significantly lower ECM death
same,survival rate compared with control,"[8]; 10, 20, 100 and 500 ng/mouse i.v. daily 5-12 dpi, vs denatured 500 ng/mouse IGFBP7, till 25 dpi",significant difference in survival rate
same,signs of cerebral malaria,"[8]; groups 10, 20, 100 and 500 ng/mouse, after 8 dpi",reversal of CM signs
same,dose adequate to confer protection from cerebral malaria,[8]; i.v. daily 5-12 dpi,10 ng/mouse

# Source: patent US12109253B2, “Use of IGFBP7 for treating malaria” (AGENCY FOR SCIENCE, TECHNOLOGY AND RESEARCH, priority 2019, dated 2024)
